The values below come from EP1148783B1, “CONVERTING COX INHIBITION COMPOUNDS THAT ARE NOT COX-2 SELECTIVE INHIBITORS TO DERIVATIVES THAT ARE COX-2 SELECTIVE INHIBITORS” (priority 1999, dated 2000).

The target in assay [1] is T1, COX-2 (Homo sapiens, UniProt P35354).
T1 sequence (P35354 18-604): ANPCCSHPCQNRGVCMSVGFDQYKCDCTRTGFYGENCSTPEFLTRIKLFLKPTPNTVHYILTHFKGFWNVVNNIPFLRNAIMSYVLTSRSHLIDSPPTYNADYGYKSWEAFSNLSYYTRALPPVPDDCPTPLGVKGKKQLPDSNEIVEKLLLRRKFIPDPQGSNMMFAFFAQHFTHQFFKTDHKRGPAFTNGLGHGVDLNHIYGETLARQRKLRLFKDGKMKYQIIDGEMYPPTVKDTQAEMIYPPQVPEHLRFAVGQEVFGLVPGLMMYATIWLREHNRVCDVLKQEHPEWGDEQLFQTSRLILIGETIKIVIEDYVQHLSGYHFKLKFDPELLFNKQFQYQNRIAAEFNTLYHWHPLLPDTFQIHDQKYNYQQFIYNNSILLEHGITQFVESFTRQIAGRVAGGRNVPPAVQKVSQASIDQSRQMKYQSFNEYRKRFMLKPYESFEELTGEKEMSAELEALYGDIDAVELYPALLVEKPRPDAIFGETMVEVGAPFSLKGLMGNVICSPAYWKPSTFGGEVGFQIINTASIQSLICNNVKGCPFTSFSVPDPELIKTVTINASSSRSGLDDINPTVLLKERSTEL
Briefly: TLC assay of cyclooxygenase inhibition, purified human COX-2. The class given is biochemical.

Assay [2] concerns rat foot pad edema. Briefly: Rat foot pad edema model (carrageenan). The class given is in vivo, male Sprague-Dawley rats. The note with it: 2 mg/kg orally, corrected for 0.1 mL injection volume.
Method: Rats were injected with carrageenan, which triggers a rapid edema (swelling) within 3 hours that can be quantitatively measured by volume displacement.
In these experiments, the carrageenan that was injected was in 0.1 mL of aqueous saline so that 0.1 mL volume increase was due to the injection alone. […] More specifically, male Sprague-Dawley rats (150 g) received a subplantar injection of carrageenan (0.1 mL of a 1% suspension of carrageenan in sterile aqueous saline) into the right hind footpad while mildly anesthetized with methoxyflurane. […] The ipsilateral footpad volume (mL) was measured with a water displacement plethysmometer at time = 3 hours post-injection and compared to the time = 0 pre-injection paw volume for edema calculations.
Assay [3] concerns the target T2, murine COX-2 mutant Tyr341Ala (Mus musculus, UniProt Q05769, Y341A).
T2 sequence (Q05769 18-604 Y341A): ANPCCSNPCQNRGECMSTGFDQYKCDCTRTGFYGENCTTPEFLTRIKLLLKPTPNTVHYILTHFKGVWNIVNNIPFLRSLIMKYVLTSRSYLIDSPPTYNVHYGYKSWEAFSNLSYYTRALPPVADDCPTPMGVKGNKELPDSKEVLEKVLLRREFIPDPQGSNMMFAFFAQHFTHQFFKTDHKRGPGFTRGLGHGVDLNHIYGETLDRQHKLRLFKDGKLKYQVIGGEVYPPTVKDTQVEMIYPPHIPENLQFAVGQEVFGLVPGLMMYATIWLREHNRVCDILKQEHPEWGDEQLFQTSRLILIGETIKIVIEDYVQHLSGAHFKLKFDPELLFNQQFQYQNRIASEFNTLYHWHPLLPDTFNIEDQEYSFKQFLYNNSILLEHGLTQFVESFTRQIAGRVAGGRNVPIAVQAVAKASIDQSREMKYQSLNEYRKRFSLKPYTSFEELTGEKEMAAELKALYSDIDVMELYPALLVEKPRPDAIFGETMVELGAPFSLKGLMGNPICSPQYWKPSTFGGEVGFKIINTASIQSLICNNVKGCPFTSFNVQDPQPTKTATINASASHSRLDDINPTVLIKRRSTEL

Assay [4] has as its target T3, Val509lleArg499HisVal420lle mutant (VRV mutant) (Mus musculus, UniProt Q05769, R499H/V420I/V509I).
T3 sequence (Q05769 18-604 V420I/R499H/V509I): T2 sequence (Q05769 18-604 Y341A) with A324Y, V403I, R482H, V492I

In assay [5] the target is T4, ovine COX-1 (Ovis aries, UniProt P05979).
T4 construct: COX-1 was purified from ram seminal vesicles obtained from Oxford Biomedical Research, Inc; tissue Oxford Biomedical Research, Inc. (Oxford, Michigan); host or cells: ram seminal vesicles
T4 sequence (P05979 25-600): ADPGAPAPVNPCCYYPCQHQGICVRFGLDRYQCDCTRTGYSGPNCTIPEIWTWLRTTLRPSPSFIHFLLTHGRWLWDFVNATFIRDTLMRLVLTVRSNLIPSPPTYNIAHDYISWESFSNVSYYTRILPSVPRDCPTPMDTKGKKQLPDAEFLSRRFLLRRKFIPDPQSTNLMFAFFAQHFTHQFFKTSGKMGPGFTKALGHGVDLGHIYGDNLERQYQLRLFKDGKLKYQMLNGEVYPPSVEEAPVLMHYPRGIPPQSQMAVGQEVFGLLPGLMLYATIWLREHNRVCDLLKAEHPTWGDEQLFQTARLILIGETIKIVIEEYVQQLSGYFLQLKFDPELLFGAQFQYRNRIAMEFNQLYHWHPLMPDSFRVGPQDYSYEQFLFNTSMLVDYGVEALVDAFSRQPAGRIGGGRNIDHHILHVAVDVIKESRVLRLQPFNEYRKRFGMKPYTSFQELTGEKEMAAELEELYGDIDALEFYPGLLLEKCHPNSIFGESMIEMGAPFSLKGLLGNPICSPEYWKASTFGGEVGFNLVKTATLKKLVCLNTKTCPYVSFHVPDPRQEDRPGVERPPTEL
Briefly: TLC assay of cyclooxygenase inhibition, purified ovine COX-1. Type of assay: biochemical. The note with it: Table 2, amide derivatives; ovine COX-1 (44 nM), 20 min, 1-14C-AA at 37°C for 30 sec.

Assay [6] addresses COX-1 (Homo sapiens, UniProt P23219). Conditions: background / literature statement; cited from earlier work.
The target in assay [7] is T1, COX-2. The note with it: background / literature statement; cited from earlier work.

Changes are numbered by the printed parent chain. Where two headings read alike, the source gives them in different places.

COX-1, sequence (P23219 24-599): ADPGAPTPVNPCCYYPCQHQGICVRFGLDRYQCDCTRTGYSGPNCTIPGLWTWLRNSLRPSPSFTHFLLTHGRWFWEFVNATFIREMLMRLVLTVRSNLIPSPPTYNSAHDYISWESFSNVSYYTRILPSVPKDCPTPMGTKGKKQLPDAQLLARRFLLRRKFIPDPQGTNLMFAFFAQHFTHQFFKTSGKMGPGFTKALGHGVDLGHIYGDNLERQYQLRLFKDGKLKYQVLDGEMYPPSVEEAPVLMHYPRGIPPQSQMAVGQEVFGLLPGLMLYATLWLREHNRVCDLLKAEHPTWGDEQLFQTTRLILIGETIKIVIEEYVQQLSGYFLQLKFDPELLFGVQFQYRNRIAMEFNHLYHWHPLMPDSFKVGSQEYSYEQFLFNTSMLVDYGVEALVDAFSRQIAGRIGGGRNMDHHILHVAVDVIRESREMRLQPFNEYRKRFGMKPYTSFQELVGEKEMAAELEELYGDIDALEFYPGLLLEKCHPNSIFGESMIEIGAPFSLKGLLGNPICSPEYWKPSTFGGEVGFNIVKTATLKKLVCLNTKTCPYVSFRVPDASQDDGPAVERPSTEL

Regarding `Cc1nc(-c2ccccc2)c(-c2ccc(S(N)(=O)=O)cc2)o1` [2-methyl-4-phenyl-5-sulfonamidophenyl oxazole, reference compound], the Selectivity in assay [1] (Table 1, ester derivatives, Ratio of IC50 (COX-1):IC50 (COX-2)) is greater than 1100.
`COc1ccc2c(c1)c(CC(=O)O)c(C)n2C(=O)c1ccc(Cl)cc1` [Compound 1, Indomethacin]: the reduction in inflammation result in assay [2] is reported as “comparable reduction in inflammation”.
For `COc1ccc2c(c1)c(CC(=O)OCCC1CCCCC1)c(C)n2C(=O)c1ccc(Cl)cc1` [Compound 10, Indomethacin cyclohexylethyl ester], the “IC value at which measurement of COX-2 inhibition was stopped” value in assay [1] (tertiary amides) is 33.
On to `COc1ccc2c(c1)c(CC(=O)NCCc1ccccc1)c(C)n2C(=O)c1ccc(Cl)cc1` [Compound 38, Indomethacin-N-(2-phenethyl) amide], for which the “inhibition of Tyr341Ala mutant” value in assay [3] is given as “resistant to inhibition”. The “inhibition of triple mutant VRV” value in assay [4] is “resistant to inhibition”.
The IC50 is the midpoint of a concentration-inhibition curve. Read a high IC50 as weaker potency. `COc1ccc2c(c1)c(CC(=O)Nc1ccc(F)cc1)c(C)n2C(=O)c1ccc(Cl)cc1` [Compound 39, Indomethacin-N-(4-fluorophenyl) amide] had an IC50 in assay [5] greater than 66 µM.
For `COc1ccc2c(c1)c(CC(=O)Nc1cccnc1)c(C)n2C(=O)c1ccc(Cl)cc1` [Compound 47, Indomethacin-N-(3-pyridyl) amide], in assay [5], the IC50 is greater than 66 µM.
In assay [1], `CCn1nccc1NC(=O)Cc1c(C)n(C(=O)c2ccc(Cl)cc2)c2ccc(OC)cc12` [Compound 49, Indomethacin-N-5-((1-ethyl)pyrazolo) amide] yielded an IC50 of 0.71 µM and a Selectivity greater than 94.
Regarding `CC1=C(CC(=O)O)c2cc(F)ccc2/C1=C\c1ccc(S(C)(=O)=O)cc1` [sulindac sulfone], in assay [6], the “inhibition of COX-1 (in words)” value was “does not inhibit”. In addition, in assay [7], the “inhibition of COX-2 (in words)” value was “does not inhibit”.
“Indomethacin 3-pyridyl ester [Compound 24]” returned a Selectivity in assay [1] of 50.
